Laboratory results published in the SangsterLogP compilation.
Non-standard residues stand in square brackets, D forms with d. Residues, ends and D or L forms follow the SMILES beside them.

Legend:
[1] = method code SF-HPLC, from Bhosale, A.; Agrawal, G.; Mishra, P. (2004). Preparation and characterization of mutual prodrugs of ibuprofen. Indian Journal of Pharmaceutical Sciences, 66, 158-163.; settings: pH 1.2
[2] = method code G-HPLC, from DOI: 10.1016/s0045-6535(97)00024-6
[3] = not given; remark: listed apart in the source
[4] = method code SF-AS, from DOI: 10.1016/j.ejmech.2010.07.027, PMID: 20705371
[5] = method code SF-AS, from DOI: 10.1016/s0021-9673(03)00617-4, PMID: 12830921
[6] = method code SF-RC, from DOI: 10.1023/a:1015825912542, PMID: 1808606; settings: pH 7.2
[7] = method code SF-RC, from DOI: 10.1021/jm300199g, PMID: 22540974; settings: pH 7.4
[8] = method code SF-RC, from DOI: 10.1016/j.nucmedbio.2007.03.011, PMID: 17591556; settings: pH 8.9
[9] = method code SF-AS, from DOI: 10.1016/j.ejmech.2015.02.036, PMID: 25728022; settings: pH 7.4
[10] = method code SF-HPLC, from DOI: 10.1023/a:1007546905874, PMID: 11205732; settings: pH 7.4
[11] = method code SF, from DOI: 10.1023/a:1015958526423, PMID: 2095573
[12] = method code SF-RC, from DOI: 10.1002/jlcr.3310, PMID: 26094722; settings: pH 7.4
[13] = not given; remark: listed apart in the source
[14] = not given; remark: listed apart in the source
[15] = method code SF, from DOI: 10.1016/s0378-5173(97)00352-9
[16] = method code SF, from DOI: 10.1021/jm5017544, PMID: 25671691; settings: pH 7.4
[17] = from Xu, W.; Sun, J.; Zhang, T.; Ma, B.; Chen, D.; He, Z. (2007). Determination of equilibrium solubility of oridonin and its apparent oil-water partition coefficient by HPLC. Journal of Shenyang …
[18] = method code SF-GR, from DOI: 10.1016/s0022-3565(25)32611-x, PMID: 7230009
[19] = method code SF, from DOI: 10.1021/jm0201114, PMID: 12238930; settings: pH 7.4
[20] = method code SF, from PMID: 21667; settings: pH 10.1
[21] = method code SF-AS, from DOI: 10.1016/j.bmcl.2014.05.029, PMID: 24930836
[22] = not given; remark: listed apart in the source
[23] = method code SF-AS, from DOI: 10.1002/chin.197711219; settings: pH 7.4
[24] = method code SF, from DOI: 10.1021/jm4003632, PMID: 23662903; settings: pH 7.4
[25] = method code SF-HPLC, from DOI: 10.1002/ps.2780290114
[26] = method code SF-AS, from DOI: 10.1016/0147-6513(87)90041-8, PMID: 3830021
[27] = method code SF-HPLC, from DOI: 10.1021/jf0483669, PMID: 15913295; settings: pH 7.4
[28] = method code SF-HPLC, from DOI: 10.1016/j.ejpb.2012.03.006, PMID: 22469554
[29] = not given; remark: listed apart in the source
[30] = method code SF-HPLC, from DOI: 10.1002/jps.2600830510, PMID: 8071813
[31] = method code SF-HPLC, from PMID: 4074422; settings: pH 7.0
[32] = not given; remark: listed apart in the source
[33] = method code pH-metric titration, from DOI: 10.1002/(sici)1096-9063(199607)47:3<265::aid-ps416>3.0.co;2-f
[34] = method code SF-RC, from DOI: 10.1002/jlcr.3404, PMID: 27126914; settings: pH 7.4
[35] = method code SF-HPLC, from DOI: 10.1016/j.ejps.2016.07.010, PMID: 27422078; settings: pH 7.4
[36] = not given; remark: listed apart in the source
[37] = method code SF-HPLC, from DOI: 10.1023/a:1015837931256, PMID: 1788153; settings: pH 7.4
[38] = not given; remark: listed apart in the source
[39] = method code SF-HPLC, from DOI: 10.1208/s12249-013-0046-y, PMID: 24297599; settings: pH 4.0

CC(C)Cc1ccc(C(C)C(=O)Oc2ccccc2C(N)=O)cc1 (stereo not given)
logD [1]: 1.54

O=C(NC1CCCCCCC1)NS(=O)(=O)c1cnccc1Nc1cccc(C(F)(F)F)c1
logP: 2.29

c1ccc2nc3c4ccccc4c4ccccc4c3cc2c1
logP [2]: 5.66

O=C(CN1C(=O)c2ccccc2C1=O)N1CCN(Cc2ccc(I)cc2)CC1
logP [3]: 3.6

CC(C)(C)c1cc(CN2CCOCC2)c(O)c(CN2CCOCC2)c1
logP [4]: 2.03

CCC12CCCN3CCc4c(n(c5ccccc45)C(O)(C(=O)OC)C1)C32 (stereo not given)
logP [5]: 2.96

CC(=O)N[C@H](Cc1ccccc1)C(=O)N[C@H](Cc1ccccc1)C(N)=O (Ac-[dF]-[dF]-NH2)
logD [6]: 1.19

CC(C)[C@H](C(=O)NO)N(Cc1ccccc1)S(=O)(=O)c1ccc(OCCF)cc1
logD [7]: 2.02

CN(C(=O)CF)c1cccc(-c2ccnc3c(C(=O)c4cccs4)cnn23)c1
logD [8]: 1.4

C=CCn1c(C)nc2cc(Nc3nc(N4CCOCC4)nc4[nH]cnc34)ccc21
logD [9]: 1.59

O=C1OC(c2ccc(O)cc2)(c2ccc(O)cc2)c2ccccc21
logD [10]: 3.36

COc1cc(C)c(/C=C/C(C)=C/C=C/C(C)=C/C(=O)O)c(C)c1C
logP [11]: 6.4

CC(C)(C)n1ncc(OCc2cccc(Cn3cc(CCF)nn3)c2)c(Cl)c1=O
logD [12]: 2.54

COc1cc2c(cc1OC)C1Cc3ccc(OC)c(OC)c3CN1CC2 (stereo not given)
logP [13]: 2.6

COc1cc2c(N)nc(N3CCN(C(=O)OCC(C)(C)O)CC3)nc2c(OC)c1OC
logP [14]: 1.3

C/C(=C(/OCCOc1ccc(Cl)cc1)c1ccc(Cl)cc1Cl)n1ccnc1
logP [15]: 5.76

CN(C)c1ccc(N=Nc2nc3ccc(OCCOCCOCCF)cc3s2)cc1
logD [16]: 2.05

C=C1C(=O)[C@]23C(O)C1CC[C@H]2[C@@]12CO[C@]3(O)C(O)[C@@H]1C(C)(C)CCC2O (stereo not given in full)
logP [17]: 1.66

CC1C2CCC3C(O)C2(CC(O)C2(O)C1CC(O)C2(C)C)CC3(C)O (stereo not given)
logP [18]: 1.51

COc1cc2ncnc(N3CCN(C(=S)NCCc4ccco4)CC3)c2cc1OC
logD [19]: 2.75

COc1ccccc1N1CCN(CCCNc2cc(=O)n(C)c(=O)n2C)CC1
logD [20]: 1.6

Cc1cc(=O)oc2cc(OCC(O)Cn3cncn3)cc(OCC(O)Cn3cncn3)c12 (stereo not given)
logP [21]: 0.65

CC(=O)C1=C(O)C2C3c4c[nH]c5cccc(c45)CC3C(C)(C)N2C1=O (stereo not given)
logP [22]: 3.83

O=C1C(=C2C=CN(CCN3CCOCC3)C=C2)C(=O)c2ccccc21
logD [23]: 2.01

CC(C)n1ncnc1-c1nc2c(s1)CCOc1cc(-c3cnn(CCO)c3)ccc1-2
logD [24]: 3.9

CCCCS/C(=N\c1cccnc1)SCc1ccc(C(C)(C)C)cc1
logP [25]: 7

COC(=O)CCN(CCC(=O)OC)c1ccc(/N=N/c2c(Cl)cc([N+](=O)[O-])cc2Br)cc1
logP [26]: 4.1

O=c1c(-c2ccc(O)cc2)coc2cc(O[C@@H]3O[C@H](CO)[C@@H](O)[C@H](O)[C@H]3O)cc(O)c12
logD [27]: 0.97

O=C(CCCCCCCC(=O)Oc1ccc(O)cc1)Oc1ccc(O)cc1
logP [28]: 4.99

O=C(O)c1[nH]c2cc(Cl)cc(Cl)c2c1CN1CC(=O)N(c2cccc(OCCF)c2)C1=O
logP [29]: 2.16

O=C(OCCCN1CCOCC1)c1ccccc1Nc1c(Cl)cccc1Cl
logP [30]: 2.81

O=C1CCc2cc(OCCCCc3nnnn3C3CCCCC3)ccc2N1
logD [31]: 2.76

CC[C@H]1C[C@]2(C)[C@@H](O)CC[C@H]2[C@@H]2CCc3cc(O)ccc3[C@@H]12
logP [32]: 3.8

CCO/N=C(\CC)C1=C(O)CC(c2c(C)cc(C)cc2C)CC1=O (stereo not given)
logP [33]: 4.46

Cn1cc(C2=C(c3coc4ccccc34)C(=O)NC2=O)c2cc(I)ccc21
logD [34]: 3.18

Cc1cc(=O)c2c(O)cc(O)c(C3CCN(C)CC3OC(=O)C(C)(C)C)c2o1 (stereo not given)
logD [35]: 1.66

CCN(CC)C(=O)Cc1c(-c2ccc(OC)cc2)nn2c(C)cc(C)nc12
logP [36]: 2.44

Nc1nc2c(ncn2COCCOC(=O)c2ccc(CN3CCOCC3)cc2)c(=O)[nH]1
logD [37]: -0.05

CCCCCCN1C(=O)NC(c2ccccc2)(c2ccccc2)C1=O
logP [38]: 4.39

CC[C@@]1(O)C(=O)OCc2c1cc1n(c2=O)Cc2cc3c(N)cccc3nc2-1
logD [39]: 1.26
